Measurements as given in patent US10799507B2, “5-(7H-pyrrolo[2,3-d]pyrimidin-4-yl)-5-azaspiro[2.5]octane-8-carboxylic acid derivatives as novel JAK kinase inhibitors” (LEO Pharma A/S, priority 2017, dated 2020).

Tests used:
JAK2 = JAK2 (Homo sapiens (Human), UniProt O60674); experiment: JAK kinase assay (HTRF), JAK2; format: biochemical; settings: catalytic domain, ATP at Km (4 μM)
In short: (§1)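 Catalytic-domain human JAK1 (GST-tagged, aa 850-1154) or His-tagged JAK2, baculovirus-expressed, phosphorylated 1 µM biotinylated TK peptide at Km ATP (JAK1 7 µM, 10 mM MgCl2, 50 nM SEB; JAK2 4 µM, 5 mM MgCl2) in pH 7.0 Hepes, 20-30 min RT. EDTA stop; overnight streptavidin-XL665/cryptate HTRF read.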

JAK1 = JAK1 (Homo sapiens (Human), UniProt P23458); experiment: JAK kinase assay (HTRF), JAK1; format: biochemical; settings: catalytic domain, ATP at Km (7 μM)
JAK1, sequence (P23458 850-1154): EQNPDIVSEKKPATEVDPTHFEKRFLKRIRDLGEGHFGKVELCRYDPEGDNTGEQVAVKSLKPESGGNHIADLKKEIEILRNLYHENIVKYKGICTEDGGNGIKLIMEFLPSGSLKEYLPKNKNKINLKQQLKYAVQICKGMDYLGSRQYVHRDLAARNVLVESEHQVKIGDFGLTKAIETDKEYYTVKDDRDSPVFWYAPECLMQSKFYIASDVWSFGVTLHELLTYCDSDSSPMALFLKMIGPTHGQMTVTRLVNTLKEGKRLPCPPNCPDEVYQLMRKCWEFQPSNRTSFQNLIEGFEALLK
In short: as §1

[1] = in vitro metabolic stability in human liver microsomes; format: in vitro ADME; settings: 0.5 μM compound, 0.5 mg/mL microsomes, NADPH, 40 min, 37° C.; for CLint scaled at 0.5 μM: human, liver microsomes, read-out: Human liver microsome Clapp (apparent intrinsic clearance)
Protocol: To assess the in vitro metabolic stability, the compounds (0.5 μM) were incubated in duplicates with human liver microsomes (0.5 mg/mL) in phosphate buffer and NADPH, in 96-well plates for 40 min (37° C.), using a liquid handling robot (Hamilton Microlab Star). Sample aliquots were taken at 0, 5, 10, 20 and 40 min, and dispensed into cold acetonitrile, in order to stop the reactions. The plates were centrifuged for 30 minutes before the samples were analyzed using liquid chromatography coupled to a time-of-flight mass spectrometer (AB Sciex API5600). The compound depletion over time was used to estimate the elimination rate constant, from which the apparent intrinsic clearance, Clapp, was calculated and the values are listed in Table 2.

TYK2 = TYK2 (Homo sapiens (Human), UniProt P29597); experiment: JAK kinase assay (HTRF), TYK2; format: biochemical; settings: catalytic domain, ATP at Km (13 μM)
TYK2, sequence (P29597 871-1187): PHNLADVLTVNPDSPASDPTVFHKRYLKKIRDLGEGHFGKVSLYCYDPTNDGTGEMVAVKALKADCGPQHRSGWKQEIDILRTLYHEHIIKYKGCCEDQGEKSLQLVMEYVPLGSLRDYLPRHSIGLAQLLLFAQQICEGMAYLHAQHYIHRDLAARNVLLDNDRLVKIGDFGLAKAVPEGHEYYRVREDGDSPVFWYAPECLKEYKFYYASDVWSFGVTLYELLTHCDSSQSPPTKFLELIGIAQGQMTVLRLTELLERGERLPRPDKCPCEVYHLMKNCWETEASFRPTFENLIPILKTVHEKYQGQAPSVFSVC
In short: (§2)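 Catalytic-domain human kinases, GST-tagged TYK2 (aa 871-1187) and His-tagged JAK3, phosphorylate 1 μM TK Substrate-Biotin for 20-30 min at RT in 50 mM Hepes pH 7.0, 5 mM MgCl2, ATP at Km (TYK2 13 μM with 50 nM SEB; JAK3 2 μM). Phosphorylation detected by HTRF.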

JAK3 = JAK3 (Homo sapiens (Human), UniProt P52333); experiment: JAK kinase assay (HTRF), JAK3; format: biochemical; settings: catalytic domain, ATP at Km (2 μM)
JAK3, sequence (P52333 822-1111): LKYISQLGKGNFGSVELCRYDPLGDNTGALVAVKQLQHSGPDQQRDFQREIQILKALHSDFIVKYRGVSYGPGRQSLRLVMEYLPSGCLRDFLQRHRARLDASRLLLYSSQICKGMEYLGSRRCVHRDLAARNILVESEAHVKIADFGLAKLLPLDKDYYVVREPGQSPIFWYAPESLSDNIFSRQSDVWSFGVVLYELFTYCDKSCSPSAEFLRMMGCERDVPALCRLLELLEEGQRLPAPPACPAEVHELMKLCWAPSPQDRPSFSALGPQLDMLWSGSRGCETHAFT
In short: as §2

JAK2, sequence (O60674 849-1124): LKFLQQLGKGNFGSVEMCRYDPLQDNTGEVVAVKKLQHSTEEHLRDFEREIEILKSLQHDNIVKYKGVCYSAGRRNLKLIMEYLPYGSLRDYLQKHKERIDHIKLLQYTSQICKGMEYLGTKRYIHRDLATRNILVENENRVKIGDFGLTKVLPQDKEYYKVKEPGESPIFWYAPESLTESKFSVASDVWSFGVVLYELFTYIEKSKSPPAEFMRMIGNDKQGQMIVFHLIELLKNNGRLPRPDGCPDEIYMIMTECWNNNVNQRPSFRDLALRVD

Structure (SMILES)	EC50 (JAK2)	EC50 (JAK1)	CLint scaled at 0.5 μM [1]	EC50 (TYK2)	EC50 (JAK3)	Human liver microsome Clapp (apparent intrinsic clearance) [1]
O=C(N[C@H](CO)C(=O)OCC1CC1)[C@H]1CCN(c2ncnc3[nH]ccc23)CC12CC2 [Example 91, cyclopropylmethyl (2R)-3-hydroxy-2-[[(8S)-5-(7H-pyrrolo[2,3-d]pyrimidin-4-yl)-5-azaspiro[2.5]octane-8-carbonyl]amino]propanoate]	17.7 nM	8.2 nM	17 mL/min/kg	163 nM	47.3 nM	
O=C(NCC1(CO)CC(F)(F)C1)[C@H]1CCN(c2ncnc3[nH]ccc23)CC12CC2 [Example 23, (8S)-N-[[3,3-difluoro-1-(hydroxymethyl)cyclobutyl]methyl]-5-(7H-pyrrolo[2,3-d]pyrimidin-4-yl)-5-azaspiro[2.5]octane-8-carboxamide]	2.7 nM	1.3 nM	40 mL/min/kg	19.8 nM	6.7 nM	
N#Cc1ccc(CNC(=O)C2CCN(c3ncnc4[nH]ccc34)CC23CC3)nc1 (centres unmarked) [Example 76, N-[(5-cyano-2-pyridyl)methyl]-5-(7H-pyrrolo[2,3-d]pyrimidin-4-yl)-5-azaspiro[2.5]octane-8-carboxamide]	43.3 nM	6.2 nM	139 mL/min/kg		53.6 nM	
O=C(NCC1(CO)CC(F)(F)C1)C1CCN(c2ncnc3[nH]ccc23)CC12CC2 (centres unmarked) [Example 35, N-[[3,3-difluoro-1-(hydroxymethyl)cyclobutyl]methyl]-5-(7H-pyrrolo[2,3-d]pyrimidin-4-yl)-5-azaspiro[2.5]octane-8-carboxamide]	4.8 nM	1.9 nM	41 mL/min/kg	71.8 nM	8.6 nM	
O=C(NC[C@@H](O)C1CCCC1)[C@H]1CCN(c2ncnc3[nH]ccc23)CC12CC2 [Example 1, (8S)-N-[(2S)-2-cyclopentyl-2-hydroxy-ethyl]-5-(7H-pyrrolo[2,3-d]pyrimidin-4-yl)-5-azaspiro[2.5]octane-8-carboxamide]	1 nM	0.5 nM		3.6 nM	3.3 nM	190 mL/min/kg
C[C@H](NC(=O)[C@H]1CCN(c2ncnc3[nH]ccc23)CC12CC2)[C@@H](O)C1CCCCC1 [Example 3, (8S)-N-[(1S,2S)-2-cyclohexyl-2-hydroxy-1-methyl-ethyl]-5-(7H-pyrrolo[2,3-d]pyrimidin-4-yl)-5-azaspiro[2.5]octane-8-carboxamide]	1.1 nM	0.5 nM	> 200 mL/min/kg	6.2 nM	3.4 nM	
O=C(NCc1ccccc1)C1CCN(c2ncnc3[nH]ccc23)CC12CC2 (centres unmarked) [Example 95, N-benzyl-5-(7H-pyrrolo[2,3-d]pyrimidin-4-yl)-5-azaspiro[2.5]octane-8-carboxamide]	17.9 nM	8.6 nM	135 mL/min/kg	502 nM	31.6 nM	
Cc1cc(C#N)ccc1[C@H](CO)NC(=O)[C@H]1CCN(c2ncnc3[nH]ccc23)CC12CC2 [Example 37, (8S)-N-[(1R)-1-(4-cyano-2-methyl-phenyl)-2-hydroxy-ethyl]-5-(7H-pyrrolo[2,3-d]pyrimidin-4-yl)-5-azaspiro[2.5]octane-8-carboxamide]	10.2 nM	2 nM	91 mL/min/kg	102 nM	36.4 nM	
C[C@H](NC(=O)[C@H]1CCN(c2ncnc3[nH]ccc23)CC12CC2)[C@@H](O)c1ccc(F)c(F)c1 [Example 149, (8S)-N-[(1S,2S)-2-(3,4-difluorophenyl)-2-hydroxy-1-methyl-ethyl]-5-(7H-pyrrolo[2,3-d]pyrimidin-4-yl)-5-azaspiro[2.5]octane-8-carboxamide]	200 nM	0.4 nM	> 200 mL/min/kg	4.2 nM	0.6 nM	
O=C(OCC1(CO)CCCCC1)[C@H]1CCN(c2ncnc3[nH]ccc23)CC12CC2 [Example 161, [1-(hydroxymethyl)cyclohexyl]methyl (8S)-5-(7H-pyrrolo[2,3-d]pyrimidin-4-yl)-5-azaspiro[2.5]octane-8-carboxylate]			> 200 mL/min/kg			
C[C@@H](NC(=O)[C@H]1CCN(c2ncnc3[nH]ccc23)CC12CC2)c1ccc(C#N)c(F)c1 [Example 84, (8S)-N-[(1R)-1-(4-cyano-3-fluoro-phenyl)ethyl]-5-(7H-pyrrolo[2,3-d]pyrimidin-4-yl)-5-azaspiro[2.5]octane-8-carboxamide]	24.1 nM	7 nM		249 nM	55.5 nM	
O=C(OCc1ccccc1)[C@H](CO)NC(=O)[C@H]1CCN(c2ncnc3[nH]ccc23)CC12CC2 [Example 138, Benzyl (2S)-3-hydroxy-2-[[(8S)-5-(7H-pyrrolo[2,3-d]pyrimidin-4-yl)-5-azaspiro[2.5]octane-8-carbonyl]amino]propanoate]	112 nM	38.2 nM		1100 nM	90.9 nM	
O=C(NCC1CCC1)C1CCN(c2ncnc3[nH]ccc23)CC12CC2 (centres unmarked) [Example 115, N-(cyclobutylmethyl)-5-(7H-pyrrolo[2,3-d]pyrimidin-4-yl)-5-azaspiro[2.5]octane-8-carboxamide]	23.6 nM	12.2 nM		364 nM	92.4 nM	
O=C(NCc1cccnc1)C1CCN(c2ncnc3[nH]ccc23)CC12CC2 (centres unmarked) [Example 128, N-(3-pyridylmethyl)-5-(7H-pyrrolo[2,3-d]pyrimidin-4-yl)-5-azaspiro[2.5]octane-8-carboxamide]	38.2 nM	20.5 nM		1410 nM	58.6 nM	
O=C(NCc1cccc(F)c1)C1CCN(c2ncnc3[nH]ccc23)CC12CC2 (centres unmarked) [Example 81, N-[(3-fluorophenyl)methyl]-5-(7H-pyrrolo[2,3-d]pyrimidin-4-yl)-5-azaspiro[2.5]octane-8-carboxamide]	14.1 nM	6.7 nM		117 nM	37.7 nM	
N#Cc1ccc([C@@H](CO)NC(=O)[C@H]2CCN(c3ncnc4[nH]ccc34)CC23CC3)nc1 [Example 108, (8S)-N-[(1S)-1-(5-cyano-2-pyridyl)-2-hydroxy-ethyl]-5-(7H-pyrrolo[2,3-d]pyrimidin-4-yl)-5-azaspiro[2.5]octane-8-carboxamide]	48.2 nM	10.3 nM		347 nM	85.1 nM	
C[C@H](NC(=O)[C@H]1CCN(c2ncnc3[nH]ccc23)CC12CC2)[C@@H](O)c1ccccn1 [Example 104, (8S)-N-[(1S,2R)-2-hydroxy-1-methyl-2-(2-pyridyl)ethyl]-5-(7H-pyrrolo[2,3-d]pyrimidin-4-yl)-5-azaspiro[2.5]octane-8-carboxamide]	30.3 nM	10.1 nM		149 nM	163 nM	
O=C(N[C@H](CO)C(=O)OCC1(CO)CCC1)[C@H]1CCN(c2ncnc3[nH]ccc23)CC12CC2 [Example 98, [1-(hydroxymethyl)cyclobutyl]methyl (2R)-3-hydroxy-2-[[(8S)-5-(7H-pyrrolo[2,3-d]pyrimidin-4-yl)-5-azaspiro[2.5]octane-8-carbonyl]amino]propanoate]	15 nM	8.8 nM		177 nM	44.3 nM	
N#C[C@@H]1C[C@H]1CNC(=O)C1CCN(c2ncnc3[nH]ccc23)CC12CC2 (stereo partly drawn) [Example 102, N-[[(1R,2R)-2-cyanocyclopropyl]methyl]-5-(7H-pyrrolo[2,3-d]pyrimidin-4-yl)-5-azaspiro[2.5]octane-8-carboxamide]	26.2 nM	9.5 nM		531 nM	35 nM	
O=C(N[C@@H](CO)c1ccc(F)cc1CO)[C@H]1CCN(c2ncnc3[nH]ccc23)CC12CC2 [Example 100, (8S)-N-[(1R)-1-[4-fluoro-2-(hydroxymethyl)phenyl]-2-hydroxy-ethyl]-5-(7H-pyrrolo[2,3-d]pyrimidin-4-yl)-5-azaspiro[2.5]octane-8-carboxamide]	37.3 nM	9.1 nM		248 nM	71.9 nM	
C[C@H](NC(=O)[C@H]1CCN(c2ncnc3[nH]ccc23)CC12CC2)[C@H](O)c1ccc(F)cn1 [Example 107, (8S)-N-[(1S,2S)-2-(5-fluoro-2-pyridyl)-2-hydroxy-1-methyl-ethyl]-5-(7H-pyrrolo[2,3-d]pyrimidin-4-yl)-5-azaspiro[2.5]octane-8-carboxamide]	14.5 nM	10.3 nM		125 nM	57.7 nM	
